The structures appear in SMILES notation.

The record followed here is patent US8071584B2 (GlaxoSmithKline LLC, priority 2007, dated 2011).

The subject of the first experiment is human monocyte stimulated cytokine production (TNF-α). Put plainly: Monocyte assay (LPS-stimulated TNF-α production). The class given is cell-based. Conditions: 300 nM, human monocytes, LPS. As to the method: Effect of IKK-β inhibition on human monocyte stimulated cytokine production was assessed as follows: Monocytes were isolated from heparinized whole blood by Ficoll gradient, followed by purification of CD14+ cells using MACS magnetic cell separation beads. Isolated monocytes were then adhered to 96-well culture plates at 1×10^6 cells/mL in RPMI 1640 10% FBS (JRH Biosciences, Lenexa Kans.) for 2 h. Test compounds are added to the wells 30 minutes prior to stimulation with a final vehicle concentration of 0.1% DMSO. Monocytes were activated by the addition of 200 ng/mL endotoxin (LPS; E. coli serotype 026:B6) (Sigma, St. Louis, Mo.) and incubated for 24 hrs at 37 C. Cell-free supernates were analyzed by Alphascreen™ (Perkin Elmer, Waltham, Mass.) for TNF-α using R&D Systems matched pair Abs. Viability of the cells was determined by 10% trypan blue exclusion.
Usually inhibition stands for the change of the read-out against control, counted positive when it falls. In the case of `CC(C)[C@H]1CC(c2c[nH]c3c(C(N)=O)cc(-c4ccoc4)cc23)CCS1(=O)=O` (mixture of isomers) [Example 243, (mixture of isomers)-5-(3-Furanyl)-3-[trans-2-(1-methylethyl)-1,1-dioxidotetrahydro-2H-thiopyran-4-yl]-1H-indole-7-carboxamide], the inhibition at 0.3 µM lay in the range of 0 to 100%.

For the molecule `NC(=O)c1cc(-c2csc(CN3CCC3)c2)cc2c(C3CCS(=O)(=O)CC3)c[nH]c12` [Example 70, 5-[5-(1-Azetidinylmethyl)-3-thienyl]-3-(1,1-dioxidotetrahydro-2H-thiopyran-4-yl)-1H-indole-7-carboxamide], the inhibition at 0.3 µM lay within 0 to 100%.

Take `CC1(C)CC(c2c[nH]c3c(C(N)=O)cc(-c4csc(CN5CCCCCC5)c4)cc23)CCS1(=O)=O` (centres unmarked) [Example 231, 3-(2,2-Dimethyl-1,1-dioxidotetrahydro-2H-thiopyran-4-yl)-5-[5-(hexahydro-1H-azepin-1-ylmethyl)-3-thienyl]-1H-indole-7-carboxamide]: the inhibition at 0.3 µM lay in the range of 0 to 100%.

Staying with this experiment, now noted: human CD14+ monocytes, 200 ng/mL LPS, 24 hrs, values given as 'about', read-out: pIC50 in the monocyte assay (converted).
Regarding `NC(=O)c1cc(-c2ccc(F)cc2)cc2c(C3CCS(=O)(=O)C3)c[nH]c12` (racemic) [Example 171, (rac)-3-(1,1-Dioxidotetrahydro-3-thienyl)-5-(4-fluorophenyl)-1H-indole-7-carboxamide], the IC50 was 5.01 to 1000 nM.

In the case of `NC(=O)c1cc(-c2csc(CN3CCCCCC3)c2)cc2c(C3CCS(=O)(=O)CC3)c[nH]c12` [Example 72, 3-(1,1-Dioxidotetrahydro-2H-thiopyran-4-yl)-5-[5-(hexahydro-1H-azepin-1-ylmethyl)-3-thienyl]-1H-indole-7-carboxamide], the IC50 is 5.01 to 1000 nM.

As to `NC(=O)c1cc(-c2ccc3c(c2)CCO3)cc2c(C3CCS(=O)(=O)CC3)c[nH]c12` [Example 69, 5-(2,3-Dihydro-1-benzofuran-5-yl)-3-(1,1-dioxidotetrahydro-2H-thiopyran-4-yl)-1H-indole-7-carboxamide], the IC50 was 5.01 to 1000 nM.

With `NC(=O)c1cc(-c2ccsc2)cc2c(CC3CCS(=O)(=O)C3)c[nH]c12` (centres unmarked) [Example 260, 3-[(1,1-Dioxidotetrahydro-3-thienyl)methyl]-5-(3-thienyl)-1H-indole-7-carboxamide], the IC50 is 5.01 to 1000 nM.

Take `CN(C)Cc1cc(-c2cc(C(N)=O)c3[nH]cc(C4CCS(=O)(=O)C(C)(C)C4)c3c2)cs1` (centres unmarked) [Example 232, 5-{5-[(Dimethylamino)methyl]-3-thienyl}-3-(2,2-dimethyl-1,1-dioxidotetrahydro-2H-thiopyran-4-yl)-1H-indole-7-carboxamide]: the IC50 was 5.01 to 1000 nM.

Regarding `CC(C)(O)CCc1ccc(-c2cc(C(N)=O)c3[nH]cc(C4CCS(=O)(=O)CC4)c3c2)s1` [Example 66, 3-(1,1-Dioxidotetrahydro-2H-thiopyran-4-yl)-5-[5-(3-hydroxy-3-methylbutyl)-2-thienyl]-1H-indole-7-carboxamide], the IC50 was 5.01 to 1000 nM.

For `NC(=O)c1cc(-c2ccc(S(=O)(=O)N3CCC3)s2)cc2c(C3CCS(=O)(=O)CC3)c[nH]c12` [Example 81, 5-[5-(1-Azetidinylsulfonyl)-2-thienyl]-3-(1,1-dioxidotetrahydro-2H-thiopyran-4-yl)-1H-indole-7-carboxamide], the IC50 is 5.01 to 1000 nM.

As to `NC(=O)c1cc(-c2ccco2)cc2c(C3CCS(=O)(=O)C3)c[nH]c12` (centres unmarked) [Example 188, 3-(1,1-Dioxidotetrahydro-3-thienyl)-5-(2-furanyl)-1H-indole-7-carboxamide], the IC50 was 5.01 to 1000 nM.

For `CC1(C)C[C@H](c2c[nH]c3c(C(N)=O)cc(-c4ccc(F)cc4)cc23)CCS1(=O)=O` [Example 225, 3-[(4R)-2,2-dimethyl-1,1-dioxidotetrahydro-2H-thiopyran-4-yl]-5-(4-fluorophenyl)-1H-indole-7-carboxamide], the IC50 was 5.01 to 1000 nM.

Take `NC(=O)c1cc(-c2csc(CN3CCCCCC3)c2)cc2c(CC3CCS(=O)(=O)CC3)c[nH]c12` [Example 258, 3-[(1,1-dioxidotetrahydro-2H-thiopyran-4-yl)methyl]-5-[5-(hexahydro-1H-azepin-1-ylmethyl)-3-thienyl]-1H-indole-7-carboxamide]: the IC50 is 5.01 to 1000 nM.

For `NC(=O)c1cc(-c2ccc3[nH]ncc3c2)cc2c(C3CCS(=O)(=O)CC3)c[nH]c12` [Example 82, 3-(1,1-Dioxidotetrahydro-2H-thiopyran-4-yl)-5-(1H-indazol-5-yl)-1H-indole-7-carboxamide], the IC50 is 5.01 to 1000 nM.
